The assay concerns the target T1, haematopoietic prostaglandin D synthase (H-PGDS) (Homo sapiens, UniProt O60760).
T1 construct: Full length human H-PGDS cDNA (Invitrogen Ultimate ORF IOH13026) was amplified by PCR; made in house; host or cells: E. coli BL21 (DE3*), vector pET22b+
In words: H-PGDS RapidFire High Throughput Mass Spectrometry Assay. It counts as biochemical. Summed up:
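PGH2 (~10 μM burst) generated in situ from arachidonic acid by FLAG-tagged human COX-2 (Sf9-expressed), then converted to PGD2 by full-length human His-tagged H-PGDS from E. coli. PGD2 and PGF2α (substrate surrogate) quantified by RapidFire SPE-triple quadrupole MS; percent conversion calculated.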

[1] abbreviates: H-PGDS RapidFire MS assay, mean pIC50, read-out: Potency Range (mean pIC50) (converted).
The mark [2] stands for this setting: in at least one experimental run, read-out: H-PGDS pIC50 value (converted).

The record followed here is patent US20210238162A1, “CHEMICAL COMPOUNDS” (GlaxoSmithKline Intellectual Property Development Limited, priority 2015, published 2021).

Where two headings read alike, the source gives them in different places.

T1 sequence (O60760 whole entry): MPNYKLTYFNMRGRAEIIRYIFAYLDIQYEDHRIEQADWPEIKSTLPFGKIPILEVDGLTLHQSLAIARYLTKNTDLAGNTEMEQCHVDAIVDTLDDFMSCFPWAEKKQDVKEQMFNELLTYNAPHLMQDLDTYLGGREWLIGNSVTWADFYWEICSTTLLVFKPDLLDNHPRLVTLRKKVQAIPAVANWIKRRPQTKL

On to `O=C(N[C@H]1CC[C@H](N2CC(F)C2)CC1)c1cnc2cc(OC(F)F)c(F)cc2c1` [Example 90, 7-(Difluoromethoxy)-6-fluoro-N-(trans-4-(3-fluoroazetidin-1-yl)cyclohexyl)quinoline-3-carboxamide], for which the IC50 under setting [1] is 10 to 79.4 nM.
The same measure, in the same setting: the result for `CC(C)(O)[C@H]1CC[C@H](NC(=O)c2cnc3cc(C4CC4)c(F)cc3c2)CC1` [Example 42, 7-Cyclopropyl-6-fluoro-N-(trans-4-(2-hydroxypropan-2-yl)cyclohexyl)quinoline-3-carboxamide] reads less than 10 nM; that for `O=C(N[C@H]1CC[C@H](C2(O)CC2)CC1)c1cnc2cc(OC(F)F)ccc2c1` [Example 18, 7-(Difluoromethoxy)-N-(trans-4-(1-hydroxycyclopropyl)cyclohexyl)quinoline-3-carboxamide], less than 10 nM; that for `C[C@@H]1CNC(=O)[C@H]1NC(=O)c1cnc2cc(N3CC(F)C3)c(F)cc2c1` [Example 206, 6-Fluoro-7-(3-fluoroazetidin-1-yl)-N-((3S,4R)-4-methyl-2-oxopyrrolidin-3-yl)quinoline-3-carboxamide], 10 to 79.4 nM.
Regarding `CC(C)(O)[C@H]1CC[C@H](NC(=O)c2cnc3cc(C4CC4(F)F)c(F)cc3c2)CC1` (stereo partly drawn) [Example 151, 7-(2,2-Difluorocyclopropyl)-6-fluoro-N-(trans-4-(2-hydroxypropan-2-yl)cyclohexyl)quinoline-3-carboxamide], the IC50 under setting [1] was 10 to 79.4 nM.
Consider `CC(C)(O)[C@H]1CC[C@H](NC(=O)c2cnc3cc(N4CCC4)ccc3c2)CC1` [Example 194, 7-(Azetidin-1-yl)-N-(trans-4-(2-hydroxypropan-2-yl)cyclohexyl)quinoline-3-carboxamide], for which the IC50 under setting [1] is less than 10 nM.
Turning to `C[C@H](N[C@H]1C[C@H](NC(=O)c2cnc3cc(OC(F)F)c(F)cc3c2)C1)C(F)F` [Example 73, 7-(Difluoromethoxy)-N-(trans-3-(((S)-1,1-difluoropropan-2-yl)amino)cyclobutyl)-6-fluoroquinoline-3-carboxamide], under setting [1], the IC50 was 10 to 79.4 nM.
With `CC(C)(O)[C@H]1CC[C@H](NC(=O)c2cnc3cc(Cl)c(Cl)cc3c2)CC1` [Example 202A, 6,7-Dichloro-N-(trans-4-(2-hydroxypropan-2-VI)cyclohexyl)quinoline-3-carboxamide], the IC50 under setting [1] was 10 to 79.4 nM.
Turning to `C[C@@H](N[C@H]1CC[C@H](NC(=O)c2cnc3cc(OC(F)F)c(F)cc3c2)CC1)C(F)F` [Example 69, 7-(Difluoromethoxy)-N-(trans-4-(((R)-1,1-difluoropropan-2-yl)amino)cyclohexyl)-6-fluoroquinoline-3-carboxamide], the IC50 under setting [1] is 10 to 79.4 nM.
With `COc1cc2ncc(C(=O)NC3CCN(c4nnnn4C)CC3)cc2cc1Cl` [Example 32, 6-Chloro-7-methoxy-N-(1-(1-methyl-1H-tetrazol-5-yl)piperidin-4-yl)quinoline-3-carboxamide], the IC50 under setting [1] is 10 to 79.4 nM.
Regarding `CN(C)c1cc2ncc(C(=O)N[C@H]3CC[C@H](C(C)(C)O)CC3)cc2cc1F` [Example 160, 7-(Dimethylamino)-6-fluoro-N-(trans-4-(2-hydroxypropan-2-yl)cyclohexyl)quinoline-3-carboxamide], the IC50 under setting [1] was less than 10 nM and the IC50 under setting [2] is 3.98 nM.
Take `CC(C)(O)[C@H]1CC[C@H](NC(=O)c2cnc3cc(C4CC4(F)F)c(Cl)cc3c2)CC1` (stereo partly drawn) [Example 222, 6-Chloro-7-(2,2-difluorocyclopropyl)-N-((trans)-4-(2-hydroxypropan-2-yl)cyclohexyl)quinoline-3-carboxamide]: the IC50 reads like this: under setting [1], 10 to 79.4 nM; under setting [2], 63.1 nM.
As to `CC(C)(O)[C@H]1CC[C@H](NC(=O)c2cnc3cc(C4CCC4)ccc3c2)CC1` [Example 197, 7-Cyclobutyl-N-(trans-4-(2-hydroxypropan-2-yl)cyclohexyl)quinoline-3-carboxamide], under setting [1], the IC50 was 10 to 79.4 nM.
Still for that read-out and setting: with `O=C(NC1CCN(CC(F)F)CC1)c1cnc2cc(OC(F)F)c(F)cc2c1` [Example 65, N-(1-(2,2-Difluoroethyl)piperidin-4-yl)-7-(difluoromethoxy)-6-fluoroquinoline-3-carboxamide] the figure was 10 to 79.4 nM.
Still for that read-out and setting: the result for `CC(C)(O)[C@@H]1CC[C@@H](NC(=O)c2cnc3cc(OC(F)F)c(Cl)cc3c2)CO1` (racemic) [Example 124, Racemic 6-chloro-7-(difluoromethoxy)-N-((3r,6s)-6-(2-hydroxypropan-2-yl)tetrahydro-2H-pyran-3-yl)quinoline-3-carboxamide] reads less than 10 nM; that for `O=C(N[C@H]1CC[C@H](N[C@@H](CO)C(F)(F)F)CC1)c1cnc2cc(OC(F)F)c(Br)cc2c1` [Example 153, 6-Bromo-7-(difluoromethoxy)-N-(trans-4-(((S)-1,1,1-trifluoro-3-hydroxypropan-2-yl)amino)cyclohexyl)quinoline-3-carboxamide], less than 10 nM; that for `CC(C)Oc1ccc2cc(C(=O)NC3CCN(c4nnnn4C)CC3)cnc2c1` [Example 115, 7-Isopropoxy-N-(1-(1-methyl-1H-tetrazol-5-yl)piperidin-4-yl)quinoline-3-carboxamide], 100 to 1000 nM.
As to `CCOC(=O)C[C@H]1CC[C@H](NC(=O)c2cnc3cc(OC(F)F)c(F)cc3c2)CC1` [Example 88, Ethyl 2-(trans-4-(7-(difluoromethoxy)-6-fluoroquinoline-3-carboxamido)cyclohexyl)acetate], the IC50 under setting [1] was 10 to 79.4 nM.
As to `O=C(N[C@H]1CCNC1=O)c1cnc2cc(C3CCC3)c(Cl)cc2c1` [Example 181, (S)-6-Chloro-7-cyclobutyl-N-(2-oxopyrrolidin-3-yl)quinoline-3-carboxamide], the IC50 under setting [1] is less than 10 nM.
In the case of `CC(C)(O)[C@H]1CC[C@H](NC(=O)c2cnc3cc(C4CC4)c(Cl)cc3c2)CC1` [Example 39], the IC50 under setting [1] was less than 10 nM.
Turning to `CC(C)N1CC[C@H](NC(=O)c2cnc3cc(OC(F)F)c(Cl)cc3c2)C1=O` [Example 119, (S)-6-Chloro-7-(difluoromethoxy)-N-(1-isopropyl-2-oxopyrrolidin-3-yl)quinoline-3-carboxamide], under setting [1], the IC50 was 10 to 79.4 nM.
Regarding `O=C(NC1CC2(CC(NCC(F)(F)F)C2)C1)c1cnc2cc(OC(F)F)c(F)cc2c1` (racemic) [Example 61, 7-(Difluoromethoxy)-6-fluoro-N-(6-((2,22-trifluoroethyl)amino)spiro[3.3]heptan-2-yl)quinoline-3-carboxamide], under setting [1], the IC50 was 10 to 79.4 nM.
Same read-out and setting: the result for `CC(C)(O)[C@H]1C[C@H](NC(=O)c2cnc3cc(OC(F)F)ccc3c2)C1` [Example 11, 7-(Difluoromethoxy)-N-(trans-3-(2-hydroxypropan-2-yl)cyclobutyl)quinoline-3-carboxamide] reads 10 to 79.4 nM; that for `C[C@]1(O)C[C@@H](NC(=O)c2cnc3cc(OC(F)F)c(F)cc3c2)C1` [Example 93, 7-(Difluoromethoxy)-6-fluoro-N-((1s,3s)-3-hydroxy-3-methylcyclobutyl)quinoline-3-carboxamide], 100 to 1000 nM; that for `CC(C)(O)[C@H]1CC[C@H](NC(=O)c2cnc3cc(N)c(F)cc3c2)CC1` [Example 173, 7-Amino-6-fluoro-N-(trans-4-(2-hydroxypropan-2-yl)cyclohexyl)quinoline-3-carboxamide], 100 to 1000 nM.
`C[C@@H]1CNC(=O)[C@H]1NC(=O)c1cnc2cc(N3CC[C@@H]3C)c(Cl)cc2c1` [Example 205, 6-Chloro-N-((3S,4R)-4-methyl-2-oxopyrrolidin-3-yl)-7-((S)-2-methylazetidin-1-yl)quinoline-3-carboxamide]: the IC50 under setting [1] is less than 10 nM.
With `CS(=O)(=O)CCO[C@H]1CC[C@H](NC(=O)c2cnc3cc(OC(F)F)c(F)cc3c2)CC1` [Example 94, 7-(Difluoromethoxy)-6-fluoro-N-(trans-4-(2-(methylsulfonyl)ethoxy)cyclohexyl)quinoline-3-carboxamide], under setting [1], the IC50 is 10 to 79.4 nM.
Still for that read-out and setting: the result for `CC(C)(O)CO[C@H]1CC[C@H](NC(=O)c2cnc3cc(OC(F)F)c(F)cc3c2)CC1` [Example 60, 7-(Difluoromethoxy)-6-fluoro-N-(trans-4-(2-hydroxy-2-methylpropoxy)cyclohexyl)quinoline-3-carboxamide] reads 10 to 79.4 nM; that for `CC(C)(O)[C@H]1CC[C@H](NC(=O)c2cnc3cc(N4CC(F)C4)c(F)cc3c2)CC1` [Example 164, 6-Fluoro-7-(3-fluoroazetidin-1-yl)-N-(trans-4-(2-hydroxypropan-2-yl)cyclohexyl)quinoline-3-carboxamide], less than 10 nM.
As to `CC(C)(O)[C@H]1CC[C@H](NC(=O)c2cnc3c(Cl)c(OC(F)F)c(Cl)cc3c2)CC1` [Example 217, 6,8-Dichloro-7-(difluoromethoxy)-N-((trans)-4-(2-hydroxypropan-2-yl)cyclohexyl)quinoline-3-carboxamide], the IC50 under setting [1] is less than 10 nM.
For `CC1(O)CCC(NC(=O)c2cnc3cc(OC(F)F)c(Cl)cc3c2)C1` (stereo not shown) [Example 145, 6-Chloro-7-(difluoromethoxy)-N-(3-hydroxy-3-methylcyclopentyl)quinoline-3-carboxamide], the IC50 under setting [1] was 10 to 79.4 nM.
As to `O=C1CC(NC(=O)c2cnc3cc(OC(F)F)c(F)cc3c2)c2ccccc2N1` (stereo not shown) [Example 54, 7-(Difluoromethoxy)-6-fluoro-N-(2-oxo-1,2,3,4-tetrahydroquinolin-4-yl)quinoline-3-carboxamide], under setting [1], the IC50 was 10 to 79.4 nM.
With `Cn1nnnc1N1CCC(NC(=O)c2cnc3cc4c(cc3c2)OCCO4)CC1` [Example 111, N-(1-(1-Methyl-1H-tetrazol-5-yl)piperidin-4-yl)-2,3-dihydro-[1,4]dioxino[2,3-q]quinoline-8-carboxamide], under setting [1], the IC50 is 10 to 79.4 nM.
As to `CC1(F)CN(c2cc3ncc(C(=O)N[C@H]4CC[C@H](C(C)(C)O)CC4)cc3cc2F)C1` [Example 165, 6-Fluoro-7-(3-fluoro-3-methylazetidin-1-yl)-N-(trans-4-(2-hydroxypropan-2-yl)cyclohexyl)quinoline-3-carboxamide], the IC50 runs as follows: under setting [1], 10 to 79.4 nM; under setting [2], 63.1 nM.
